Patent publication US8580920B2, “Peptides useful for skin lightening” (Conopco, Inc., priority 2009, dated 2013)
Read-outs that look alike come from different tables or passages of the source. Bridges are numbered along the chain shown (N, C = ends).

Tested on: human epidermal keratinocytes neonatal (HeKn) and human epidermal melanocytes neonatal darkly pigmented (HeMnDP) co-culture
Conditions: 72 hours, with respect to untreated control
Experimental: The ability of various materials to act as skin lightening agents was measured using the melanin content assay. The experiments were carried out as per the following procedure:
A 2:1 ratio mix containing 100 000 human epidermal keratinocytes neonatal (HeKn) (neonatal foreskin keratinocytes from Cascade Biologicals) and 50 000 human epidermal melanocytes neonatal darkly pigmented (HeMnDP) (darkly pigmenting cells neonatal foreskin melanocytes from Cascade Biologicals) were seeded per well, in a 24 well cell culture plate, to establish a co-culture system. After overnight incubation, cells were treated with fresh media containing the test actives (untreated or vehicle controls set up in parallel) and incubated for 72 hours after treatment. Then media was removed and replaced with 80 μl of dimethyl sulphoxide (DMSO). The plate was further incubated with DMSO for 1 hour at 65° C., after which the well contents were triturated and the same sample used to assay both for melanin content (read at 450 nm in a plate reader) and protein estimation (regular BiCinchoninic Acid method, kit from Peirce). % reduction in melanin was with respect to untreated control.

O=c1cc(CO)occ1O [Kojic acid, reference compound]
% REDUCTION IN MELANIN CONTENT (100 μM): 19 (±1) %

-Gly-Cys-Leu-Ser-Arg-His-Val-Leu-Gln-Cys-Ala- [Peptide 1]
% REDUCTION IN MELANIN CONTENT (42 μM): 5 (±2) % | % REDUCTION IN MELANIN CONTENT (420 μM): 22 (±3) %

-Gly-Cys-His-Gly-His-Pro-Phe-Ala-Pro-Cys-Ala- [Peptide 2] (H-GCHGHPFAPCA-OH; disulfide 2-10; N-terminus and C-terminus assumed; SMILES C[C@H](NC(=O)[C@@H]1CSSC[C@H](NC(=O)CN)C(=O)N[C@@H](Cc2c[nH]cn2)C(=O)NCC(=O)N[C@@H](Cc2c[nH]cn2)C(=O)N2CCC[C@H]2C(=O)N[C@@H](Cc2ccccc2)C(=O)N[C@@H](C)C(=O)N2CCC[C@H]2C(=O)N1)C(=O)O)
% REDUCTION IN MELANIN CONTENT (46 μM): 12 (±10) %
